Source: article PMC4997316, “A ruthenium polypyridyl intercalator stalls DNA replication forks, radiosensitizes human cancer cells and is enhanced by Chk1 inhibition” (Scientific Reports, 2016)

Experiments:
[1] = tested on: HeLa cells; assay: cell-cycle analysis by PI flow cytometry; type: cell-based, human; conditions: 40 μM, 24 h
Experimental: Figure 4 [Ru(dppz)2(PIP)]^2+ induces Chk1 checkpoint kinase activation and G1-S cell-cycle arrest. […] See SI for densitometry. (c) Cell-cycle distributions of HeLa cells incubated with DMSO (0.2%), 1 or 2 at the stated concentrations and time. DNA content was quantified using propidium iodide (PI) and analysed by flow cytometry. […] Data mean of three independent experiments +/− SD. […] They are copied as bare numbers, left to right. / The gate numbers in panel c are very small, so 3, 5, 6, 8 and 9 cannot be told apart with certainty. All the values below are best readings. / DMSO: 0.86, 57.4, 22.5, 16.8 uncertain / 1 (40 μM, 3 h): 0.46, 72.7, 13.5, 8.77 uncertain / 1 (40 μM, 8 h): 1.69, 73.2, 15.3, 3.6 uncertain / 1 (40 μM, 24 h): 1.2, 72.9, 15.8, 6.47 uncertain. […] 32.4 is partly overlapped by the peak line.
Cells were washed with PBS and detached using Trypsin. After centrifugation at 1000 rpm for 5 min, cells were fixed in cold 70% ethanol for 30 mins, centrifuged and re-suspended in PBS. Samples were stained using 10 μg/ml propidium iodide (PI) and 200 μg/ml RNAase A for 30 mins before FACS analysis using a Biosciences LSRII Flow Cytometer. A minimum of 10,000 cells were counted for each sample and data were processed using FloJo software. […]

[2] = tested on: HeLa cells; assay: Trypan Blue exclusion assay; type: cell-based, human; conditions: 40 μM
Experimental: HeLa cells were seeded in 6 well plates at 100,000 cells/well and allowed to proliferate for 24 h. Cell cultures were treated as stated, media containing detached/dead cells were removed and retained, adherent cells washed with PBS and detached with Trypsin. Adherent and detached cells for each sample were combined, concentrated via centrifugation and re-suspended in 0.5 ml PBS containing 0.04% Trypan Blue solution. Trypan Blue-negative and Trypan Blue-positive cells were counted by haemocytometer. A minimum of 200 cells were counted for each sample.

[3] = tested on: hSAEC1-KT human epithelial cells; assay: cell viability with or without Chk1 inhibitor CHIR-124, hSAEC1-KT; type: cell-based; conditions: normal hSAEC1-KT cells, plus CHIR-124 500 nM, 48 h, any concentration of 1
Experimental: (§1) With this in mind, and considering the strong Chk1 activation in response to 1, HeLa cervical cancer cells, which are […][44], were exposed to a combination of 1 plus the Chk1 inhibitor CHIR-124[45] and the impact of co-treatment upon cell viability determined. A non-cytotoxic dose of 500 nM CHIR-124 was used and results were compared to single-agent treatment. […] Minimal enhancement of the anti-proliferative effect of 2 by CHIR-124 was observed (Fig. S15b), in agreement with 2 operating via a Chk1-independent mechanism.
(§2) Figure 5 Concurrent treatment of [Ru(dppz)2(PIP)]^2+ plus the Chk1 inhibitor CHIR-124 potentiates synergistic apoptosis in cancer cells. (a) Viability of HeLa (cervical cancer) or hSAEC1-KT (normal epithelial) cells after incubation with 1 in the absence or presence of Chk1 inhibitor CHIR-124 (500 nM) for 48 h constant exposure. […] (c) Quantification of apoptotic cells for experimental conditions as shown in (b). […] (f) Quantification of γH2AX foci from cells treated as in (e). […] Minimum of 150 cells counted per experiment. […]
(§3) Cells were seeded in 96 well plates at 20,000 cells/well, allowed to proliferate for 24 h before treatment as described in the main text. […] The absorbance at 540 nm was quantified by plate reader (reference wavelength 650 nm). The metabolic activity of the cell population was determined as a percentage of a negative (solvent) control.

[4] = tested on: HeLa cells; assay: quantification of apoptotic morphology (pyknosis/karyorrhexis); type: cell-based, human; conditions: single-agent treatment, 48 h (1 40 μM; CHIR-124 500 nM)
Experimental: as §1
Figure 5 Concurrent treatment of [Ru(dppz)2(PIP)]^2+ plus the Chk1 inhibitor CHIR-124 potentiates synergistic apoptosis in cancer cells. (a) Viability of HeLa (cervical cancer) or hSAEC1-KT (normal epithelial) cells after incubation with 1 in the absence or presence of Chk1 inhibitor CHIR-124 (500 nM) for 48 h constant exposure. (b) Morphological evidence for apoptosis (pyknosis/karyorrhexis, arrows) in HeLa cells treated with 40 μM 1 plus CHIR-124 for 48 h. Scale bars = 20 μm. (c) Quantification of apoptotic cells for experimental conditions as shown in (b). Equivalent results for 2 (40 μM, 48 h) included. Data mean of two independent experiments +/− SD. […] (f) Quantification of γH2AX foci from cells treated as in (e). […] Minimum of 150 cells counted per experiment. […]

[5] = tested on: HeLa cervical cancer cells; assay: cell viability with or without Chk1 inhibitor CHIR-124, HeLa; type: cell-based, human; conditions: plus CHIR-124 500 nM, 48 h constant exposure
Experimental: as §1, §2, §3

| Compound | change in cell-cycle distribution compared to controls [1] | HeLa cell growth (viable cell numbers) ([2]; 24–72 h treatment) | cytotoxicity ([2]; HeLa, up to 72 h, % total cells, read-out: non-viable (Trypan Blue positive) populations) [%] | impact on cell health on combination with CHIR-124 [3] | morphological evidence of apoptosis (pyknosis/karyorrhexis) [4] [%] | cell viability on simultaneous treatment with CHIR-124 compared to either agent alone [5] |
| --- | --- | --- | --- | --- | --- | --- |
| Oc1ccc(-c2nc3c4cccnc4c4ncccc4c3[nH]2)cc1.[Ru+2].c1ccc2nc3c4cccnc4c4ncccc4c3nc2c1.c1ccc2nc3c4cccnc4c4ncccc4c3nc2c1 [Complex 2, [Ru(dppz)2(p-HPIP)]^2+] | no change in cell-cycle distribution |  |  |  |  |  |
| [Ru+2].c1ccc(-c2nc3c4cccnc4c4ncccc4c3[nH]2)cc1.c1ccc2nc3c4cccnc4c4ncccc4c3nc2c1.c1ccc2nc3c4cccnc4c4ncccc4c3nc2c1 [Complex 1, [Ru(dppz)2(PIP)]^2+] |  | completely halts HeLa cell growth | < 20 | no substantial impact on cell health | < 5 | significant decrease in cell viability |
